Test [1] addresses Sphingosine 1-phosphate receptor 1 (Homo sapiens, UniProt P21453). Put plainly: Late-stage fluorescence-based dose-response cell-based counterscreen assay to identify agonists of the Sphingosine 1-Phosphate Receptor 4 (S1P4): Sphingosine 1-Phosphate Receptor 1 (S1P1) agonist assay Set 2. The class given is functional. (In general: The purpose of a counterscreen is to sort out artefacts and off-target activity.)

The target of test [2] is Sphingosine 1-phosphate receptor 5 (Homo sapiens, UniProt Q9H228). Put plainly: activation of human S1P5 receptor – cell-based, fluorescence, set 2, counter-screen for S1P4 agonist project, late-stage follow-up (AID 504867). The class given is functional.
For test [3], the target named is Sphingosine 1-phosphate receptor 3 (Homo sapiens, UniProt Q99500). Put plainly: Late-stage fluorescence-based dose-response cell-based counterscreen assay to identify agonists of the Sphingosine 1-Phosphate Receptor 4 (S1P4): Sphingosine 1-Phosphate Receptor 3 (S1P3) agonist assay Set 2. The class given is functional.
Test [4] deals with Sphingosine 1-phosphate receptor 2 (Homo sapiens, UniProt O95136). As to the kind of experiment: activation of human S1P2 receptor – cell-based, fluorescence, set 2, counter-screen for S1P4 agonist project, late-stage follow-up (AID 504873). The class given is functional.
The next test has as its system CHO-K1. Put plainly: Counterscreen for antagonists of the orexin 1 receptor (OX1R; HCRTR1): Homogeneous time resolved fluorescence (HTRF)-based cell-based dose response assay to identify antagonists of the parental CHO-K1 cell line. [Related pubchem assays (depositor defined):AID434989, AID435008, AID463079, AID485270, AID492963, AID492964, AID492965, AID493232, AID504699, AID504701]. The class given is functional. The settings on record: Cricetulus griseus.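 Also: potency for inhibition of ATP-stimulated IP1 production as antagonists.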

Test [5] is described as follows: Counterscreen for antagonists of the orexin 1 receptor (OX1R; HCRTR1): Fluorescence-based cell-based high throughput dose response assay to identify antagonists of the parental CHO cell line. [Related pubchem assays (depositor defined):AID434989, AID435008, AID463079, AID485270, AID492963, AID492964, AID492965, AID493232, AID504699, AID504701]. Format: functional.

The target in test [6] is Neurotensin receptor type 1 (Homo sapiens, UniProt P30989). The class given is functional.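 Also: Image-based confirmatory dose-response assay measuring agonist activity at NTR1; NTR1-expressing U2OS osteosarcoma cells imaged for beta-arrestin GFP spot formation; agonist potency where compounds increase beta-arrestin recruitment.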
Test [7] addresses T1, Orexin/Hypocretin receptor type 1 (Homo sapiens, UniProt O43613). Put plainly: Homogeneous Time Resolved Fluorescence (HTRF)-based cell-based high throughput dose response assay for antagonists of the orexin 1 receptor (OX1R; HCRTR1). [Related pubchem assays (depositor defined):AID434989, AID435008, AID463079, AID485270, AID492963, AID492964, AID492965, AID493232, AID504717, AID504718]. Format: functional. (In general: In TR-FRET formats the signal depends on donor and acceptor labels being close together.)

Test [8] addresses T1, Orexin/Hypocretin receptor type 1. As to the kind of experiment: Fluorescence-based cell-based high throughput dose response assay for antagonists of the orexin 1 receptor (OX1R; HCRTR1). [Related pubchem assays (depositor defined):AID434989, AID435008, AID463079, AID485270, AID492963, AID492964, AID492965, AID493232, AID504717, AID504718]. Format: functional.
Test [9] addresses T2, Microphthalmia-associated transcription factor (Homo sapiens, UniProt O75030).
T2 sequence (O75030 whole entry): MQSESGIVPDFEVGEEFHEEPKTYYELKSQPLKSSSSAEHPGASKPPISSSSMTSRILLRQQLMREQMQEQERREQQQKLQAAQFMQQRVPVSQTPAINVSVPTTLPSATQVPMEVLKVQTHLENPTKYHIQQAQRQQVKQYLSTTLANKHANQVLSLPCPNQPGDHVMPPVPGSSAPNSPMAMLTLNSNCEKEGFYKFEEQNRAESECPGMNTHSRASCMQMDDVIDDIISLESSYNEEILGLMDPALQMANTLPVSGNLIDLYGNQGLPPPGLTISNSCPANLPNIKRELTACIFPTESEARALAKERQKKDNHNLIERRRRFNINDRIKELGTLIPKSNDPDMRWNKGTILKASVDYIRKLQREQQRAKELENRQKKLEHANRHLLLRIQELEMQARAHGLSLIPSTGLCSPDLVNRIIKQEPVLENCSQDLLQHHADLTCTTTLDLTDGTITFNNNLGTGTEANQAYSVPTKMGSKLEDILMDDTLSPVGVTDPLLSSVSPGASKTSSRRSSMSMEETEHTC
As to the kind of experiment: reducers of TRPM1 reporter luminescence, concentration series – cell-based, SK-MEL-5, cherry-picked, set 3, MITF inhibitor project, dose response (AID 493073).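 Also: SK-MEL-5 melanoma cells with luciferase driven by the MITF target TRPM1 promoter.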 The class given is functional.

The target in test [10] is T3, Orexin receptor type 2 (Homo sapiens, UniProt O43614). As to the kind of experiment: Counterscreen assay for antagonists of the orexin 1 receptor (OX1R; HCRTR1): Fluorescence-based cell-based dose response assay for antagonists of the orexin 2 receptor (OX2R; HCRTR2), run by assay provider. The class given is functional.
T3 sequence (O43614 whole entry): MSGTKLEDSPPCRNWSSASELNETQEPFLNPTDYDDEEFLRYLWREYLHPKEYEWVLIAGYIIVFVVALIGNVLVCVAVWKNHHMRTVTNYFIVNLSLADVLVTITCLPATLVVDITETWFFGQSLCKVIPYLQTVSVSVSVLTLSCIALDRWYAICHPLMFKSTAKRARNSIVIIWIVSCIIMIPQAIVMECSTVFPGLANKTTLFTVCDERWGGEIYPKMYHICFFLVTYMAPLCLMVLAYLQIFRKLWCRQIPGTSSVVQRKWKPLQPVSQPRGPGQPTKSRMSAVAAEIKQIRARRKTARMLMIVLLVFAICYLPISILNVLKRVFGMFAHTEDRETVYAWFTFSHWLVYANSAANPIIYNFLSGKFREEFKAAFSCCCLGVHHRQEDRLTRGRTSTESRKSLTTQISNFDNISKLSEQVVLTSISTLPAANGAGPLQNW
In test [11] the target is T3, Orexin receptor type 2. Put plainly: Counterscreen assay for antagonists of the orexin 1 receptor (OX1R; HCRTR1): Homogeneous Time Resolved Fluorescence (HTRF)-based cell-based dose response assay for antagonists of the orexin 2 receptor (OX2R; HCRTR2), run by assay provider. Format: functional.
Test [12] in a line: A549 cell cytotoxicity, dose response, cytotoxicity control, plate reader, cherry-pick, antagonist series (AID 743412). The class given is functional, cell-based.
The nature of test [13]: toxicity toward HepG2 liver cells – cell-based, plate reader, cherry-pick, antagonist series, cytotoxicity control, dose response (AID 743416). The class given is functional.
The nature of test [14]: blockers of bursicon-stimulated LGR2 cAMP reporter – cell-based, HEK293, CRE-luciferase reporter, cherry pick, set 2, dose response (AID 743343).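 Also: transfected cells were stimulated with diluted bursicon conditioned medium after compound addition.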 The class given is functional.
The nature of test [15]: blockade of melanocortin 4 receptor signaling – cell-based, plate reader, cherry pick, counter-screen for LGR2 antagonist project, dose response (AID 743444).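 Also: transfected HEK 293 cells stimulated with alpha-MSH peptide; potency of inhibitors of the alpha-MSH evoked signal.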 The class given is functional.
The nature of test [16]: viability loss in HEK293 cells – cell-based, plate reader, cherry-picked samples, cytotoxicity control, dose response (AID 743446). The class given is functional.
The target of test [17] is Protein disulfide-isomerase (Homo sapiens, UniProt P07237). As to the kind of experiment: inhibition of PDI-driven insulin aggregation – biochemical, turbidity, absorbance, cherry-picked samples, dose response (AID 602350). The class given is functional.
For test [18], the target named is ALK tyrosine kinase receptor (Homo sapiens, UniProt Q9UM73). Format: functional.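 Also: ALK tested as one member of a kinase panel screen.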
Test [19] has as its target Serine/threonine-protein kinase D3 (Homo sapiens, UniProt O94806). Format: functional.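 Also: determined within a kinase panel screen, with PRKCN as the panel member.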
In test [20] the target is Tyrosine-protein kinase Lck (Homo sapiens, UniProt P06239). The class given is functional.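 Also: lck was assayed as one member of a kinase panel.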
Chain of Tyrosine-protein kinase Lck (P06239 whole entry): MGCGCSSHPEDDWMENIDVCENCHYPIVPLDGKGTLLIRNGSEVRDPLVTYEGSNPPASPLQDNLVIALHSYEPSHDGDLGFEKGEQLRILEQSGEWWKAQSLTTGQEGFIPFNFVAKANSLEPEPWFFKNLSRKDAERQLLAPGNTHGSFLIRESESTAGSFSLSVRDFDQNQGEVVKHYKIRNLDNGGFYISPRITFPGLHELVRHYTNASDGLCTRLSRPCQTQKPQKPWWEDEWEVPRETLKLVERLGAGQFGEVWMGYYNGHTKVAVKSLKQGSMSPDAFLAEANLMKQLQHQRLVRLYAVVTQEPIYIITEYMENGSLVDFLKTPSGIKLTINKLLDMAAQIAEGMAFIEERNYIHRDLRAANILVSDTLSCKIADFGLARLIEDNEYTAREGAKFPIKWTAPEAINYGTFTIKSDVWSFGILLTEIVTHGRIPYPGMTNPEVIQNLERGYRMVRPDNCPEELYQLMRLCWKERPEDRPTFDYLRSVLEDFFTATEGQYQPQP
In test [21] the target is Death-associated protein kinase 3 (Homo sapiens, UniProt O43293). Format: functional.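 Also: measured as one member of a kinome-wide profiling panel.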
In the next test the target is Activin receptor type-1 (Homo sapiens, UniProt Q04771). As to the kind of experiment: Navigating the Kinome. Panel member name: ACVR1. The class given is functional.
Test [22] addresses Mitogen-activated protein kinase 8 (Homo sapiens, UniProt P45983). The class given is functional.
Test [23] addresses Serine/threonine-protein kinase pim-1 (Homo sapiens, UniProt P11309). Format: functional.
Test [24] deals with Tyrosine-protein kinase BTK (Homo sapiens, UniProt Q06187). Format: functional.
The target of test [25] is Serine/threonine-protein kinase PAK 4 (Homo sapiens, UniProt O96013). Format: functional.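 Also: value obtained within a kinome profiling panel in which PAK4 was one of the panel members.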
Chain of Serine/threonine-protein kinase PAK 4 (O96013 whole entry): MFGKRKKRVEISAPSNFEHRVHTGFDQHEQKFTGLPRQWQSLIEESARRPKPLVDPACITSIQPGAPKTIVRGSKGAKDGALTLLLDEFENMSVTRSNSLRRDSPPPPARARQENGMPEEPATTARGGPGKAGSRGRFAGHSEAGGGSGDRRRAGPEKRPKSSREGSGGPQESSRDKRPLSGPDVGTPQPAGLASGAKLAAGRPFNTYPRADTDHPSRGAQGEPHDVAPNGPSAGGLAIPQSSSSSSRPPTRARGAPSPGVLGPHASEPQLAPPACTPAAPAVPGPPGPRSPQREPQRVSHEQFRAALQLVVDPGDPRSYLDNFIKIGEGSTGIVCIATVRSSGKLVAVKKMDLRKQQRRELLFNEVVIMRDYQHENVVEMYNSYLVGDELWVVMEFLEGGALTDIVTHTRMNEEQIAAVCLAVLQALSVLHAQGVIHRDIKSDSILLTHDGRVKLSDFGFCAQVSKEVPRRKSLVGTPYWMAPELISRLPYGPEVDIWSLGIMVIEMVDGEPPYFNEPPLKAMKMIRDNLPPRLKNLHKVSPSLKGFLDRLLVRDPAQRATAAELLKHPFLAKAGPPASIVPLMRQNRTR
The target in test [26] is Fibroblast growth factor receptor 1 (Homo sapiens, UniProt P11362). The class given is functional.
Chain of Fibroblast growth factor receptor 1 (P11362 whole entry, canonical isoform): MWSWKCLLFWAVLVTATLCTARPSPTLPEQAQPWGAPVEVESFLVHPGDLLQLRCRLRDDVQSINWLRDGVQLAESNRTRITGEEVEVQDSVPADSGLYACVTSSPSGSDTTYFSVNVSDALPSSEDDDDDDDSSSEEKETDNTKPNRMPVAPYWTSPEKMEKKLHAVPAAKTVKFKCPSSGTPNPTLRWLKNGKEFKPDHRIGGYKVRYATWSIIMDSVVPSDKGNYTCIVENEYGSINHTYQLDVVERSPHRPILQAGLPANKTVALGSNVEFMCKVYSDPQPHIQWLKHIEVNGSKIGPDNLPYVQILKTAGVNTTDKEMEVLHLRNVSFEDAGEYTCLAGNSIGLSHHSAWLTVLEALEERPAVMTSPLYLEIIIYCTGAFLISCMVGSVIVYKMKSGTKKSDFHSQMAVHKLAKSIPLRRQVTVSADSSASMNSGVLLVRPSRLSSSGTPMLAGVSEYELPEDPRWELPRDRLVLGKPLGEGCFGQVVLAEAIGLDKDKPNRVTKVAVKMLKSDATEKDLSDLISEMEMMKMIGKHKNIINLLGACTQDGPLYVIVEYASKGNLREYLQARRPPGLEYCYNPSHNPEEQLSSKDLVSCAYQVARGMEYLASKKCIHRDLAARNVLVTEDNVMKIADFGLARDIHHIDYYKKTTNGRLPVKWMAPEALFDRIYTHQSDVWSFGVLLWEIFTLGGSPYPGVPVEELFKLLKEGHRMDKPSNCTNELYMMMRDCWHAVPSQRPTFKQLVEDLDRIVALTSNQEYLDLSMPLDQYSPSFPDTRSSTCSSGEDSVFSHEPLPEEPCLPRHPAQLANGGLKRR
For test [27], the target named is Casein kinase I isoform alpha (Homo sapiens, UniProt P48729). The class given is functional.
Chain of Casein kinase I isoform alpha (P48729 whole entry, canonical isoform): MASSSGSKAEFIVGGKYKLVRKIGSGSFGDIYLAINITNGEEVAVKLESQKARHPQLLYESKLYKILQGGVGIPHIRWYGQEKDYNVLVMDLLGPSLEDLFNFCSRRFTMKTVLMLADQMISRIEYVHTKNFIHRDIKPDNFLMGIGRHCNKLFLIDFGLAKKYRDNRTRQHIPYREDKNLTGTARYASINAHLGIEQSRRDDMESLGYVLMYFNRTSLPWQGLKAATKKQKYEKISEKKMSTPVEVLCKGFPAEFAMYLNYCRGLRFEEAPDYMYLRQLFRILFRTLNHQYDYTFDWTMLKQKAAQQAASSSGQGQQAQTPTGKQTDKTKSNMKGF
Test [28] deals with Tyrosine-protein kinase JAK3 (Homo sapiens, UniProt P52333). Format: functional.
The target of test [29] is Serine/threonine-protein kinase N2 (Homo sapiens, UniProt Q16513). The class given is functional.
Chain of Serine/threonine-protein kinase N2 (Q16513 whole entry): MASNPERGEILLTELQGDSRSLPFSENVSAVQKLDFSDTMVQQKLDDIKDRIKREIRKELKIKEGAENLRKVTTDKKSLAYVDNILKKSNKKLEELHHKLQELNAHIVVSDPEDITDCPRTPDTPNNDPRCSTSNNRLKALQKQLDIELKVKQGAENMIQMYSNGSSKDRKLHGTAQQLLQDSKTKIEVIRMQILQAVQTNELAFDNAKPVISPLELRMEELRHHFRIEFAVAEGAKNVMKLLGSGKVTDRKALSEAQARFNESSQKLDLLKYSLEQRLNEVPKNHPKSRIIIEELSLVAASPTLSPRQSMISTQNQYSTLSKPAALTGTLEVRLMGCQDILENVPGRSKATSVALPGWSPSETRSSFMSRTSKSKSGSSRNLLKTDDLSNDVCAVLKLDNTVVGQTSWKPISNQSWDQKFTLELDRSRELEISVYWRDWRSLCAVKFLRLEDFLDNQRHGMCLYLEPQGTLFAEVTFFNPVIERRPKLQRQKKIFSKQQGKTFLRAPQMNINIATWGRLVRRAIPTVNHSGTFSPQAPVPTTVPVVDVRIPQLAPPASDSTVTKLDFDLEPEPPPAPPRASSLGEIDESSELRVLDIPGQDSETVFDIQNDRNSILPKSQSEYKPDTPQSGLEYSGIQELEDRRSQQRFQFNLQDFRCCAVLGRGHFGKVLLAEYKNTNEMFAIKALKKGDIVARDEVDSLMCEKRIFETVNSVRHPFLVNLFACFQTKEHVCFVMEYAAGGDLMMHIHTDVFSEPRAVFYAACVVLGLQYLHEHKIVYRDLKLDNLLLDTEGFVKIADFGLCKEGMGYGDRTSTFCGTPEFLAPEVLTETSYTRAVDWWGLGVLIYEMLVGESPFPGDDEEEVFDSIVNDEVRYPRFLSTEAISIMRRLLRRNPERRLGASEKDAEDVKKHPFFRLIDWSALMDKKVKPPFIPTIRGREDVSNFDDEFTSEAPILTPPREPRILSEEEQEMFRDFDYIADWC
The target of test [30] is Serine/threonine-protein kinase TAO1 (Homo sapiens, UniProt Q7L7X3). The class given is functional.
For test [31], the target named is Glycogen synthase kinase-3 alpha (Homo sapiens, UniProt P49840). The class given is functional.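 Also: GSK3A result taken from a broad kinome-wide kinase panel.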
Test [32] has as its target Tyrosine-protein kinase ABL1 (Homo sapiens, UniProt P00519). The class given is functional.
The target of test [33] is G protein-coupled receptor kinase 5 (Homo sapiens, UniProt P34947). As to the kind of experiment: Navigating the Kinome. Panel member name: GPRK5. Format: functional.
A further test has as its target Focal adhesion kinase 1 (Homo sapiens, UniProt Q05397). Format: functional.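 Also: measured as one member of a kinome panel.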
Test [34] deals with Tyrosine-protein kinase Fyn (Homo sapiens, UniProt P06241). Format: functional.
For test [35], the target named is Cyclin-dependent kinase 8 (Homo sapiens, UniProt P49336). As to the kind of experiment: Navigating the Kinome. Panel member name: CDK8. The class given is functional.
In test [36] the target is Mitogen-activated protein kinase kinase kinase kinase 4 (Homo sapiens, UniProt O95819). The class given is functional.
Test [37] has as its target Calcium/calmodulin-dependent protein kinase type II subunit alpha (Homo sapiens, UniProt Q9UQM7). Put plainly: Navigating the Kinome. Panel member name: CAMK2A. The class given is functional.

Active and inactive are the calls of the source.

As a reminder, the EC50 is the concentration needed to bring the measured effect to its halfway point. Usually IC50 stands for the midpoint of a concentration-inhibition curve. As usually defined, the AC50 is the concentration at which the activity in the assay is half-maximal. What is called Ki is the dissociation constant of the complex between target and ligand, obtained from inhibition or displacement.

T1 sequence (O43613 whole entry): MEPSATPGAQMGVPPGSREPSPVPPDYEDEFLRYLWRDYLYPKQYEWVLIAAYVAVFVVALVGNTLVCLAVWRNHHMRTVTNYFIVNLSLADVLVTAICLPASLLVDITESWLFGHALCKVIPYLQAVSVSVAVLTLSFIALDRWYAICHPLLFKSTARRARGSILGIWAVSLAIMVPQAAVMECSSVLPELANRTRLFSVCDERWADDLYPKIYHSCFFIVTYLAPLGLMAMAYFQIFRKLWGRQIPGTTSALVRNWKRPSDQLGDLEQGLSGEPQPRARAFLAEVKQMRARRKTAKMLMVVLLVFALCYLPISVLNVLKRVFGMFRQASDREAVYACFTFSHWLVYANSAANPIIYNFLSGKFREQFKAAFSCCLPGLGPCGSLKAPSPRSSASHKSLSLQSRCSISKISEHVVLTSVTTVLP
Chain of Mitogen-activated protein kinase 8 (P45983 whole entry): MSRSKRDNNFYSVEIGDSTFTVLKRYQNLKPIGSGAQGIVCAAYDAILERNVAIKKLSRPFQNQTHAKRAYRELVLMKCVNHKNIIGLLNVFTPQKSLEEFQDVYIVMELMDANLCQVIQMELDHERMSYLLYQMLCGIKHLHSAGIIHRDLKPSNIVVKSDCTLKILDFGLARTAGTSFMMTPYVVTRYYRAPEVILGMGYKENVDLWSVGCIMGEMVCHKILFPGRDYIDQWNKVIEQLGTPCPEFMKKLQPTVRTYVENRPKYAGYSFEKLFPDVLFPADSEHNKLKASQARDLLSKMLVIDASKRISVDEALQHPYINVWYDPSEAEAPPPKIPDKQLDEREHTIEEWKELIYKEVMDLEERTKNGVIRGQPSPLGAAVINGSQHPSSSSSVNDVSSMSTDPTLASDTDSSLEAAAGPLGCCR
Chain of Sphingosine 1-phosphate receptor 1 (P21453 whole entry): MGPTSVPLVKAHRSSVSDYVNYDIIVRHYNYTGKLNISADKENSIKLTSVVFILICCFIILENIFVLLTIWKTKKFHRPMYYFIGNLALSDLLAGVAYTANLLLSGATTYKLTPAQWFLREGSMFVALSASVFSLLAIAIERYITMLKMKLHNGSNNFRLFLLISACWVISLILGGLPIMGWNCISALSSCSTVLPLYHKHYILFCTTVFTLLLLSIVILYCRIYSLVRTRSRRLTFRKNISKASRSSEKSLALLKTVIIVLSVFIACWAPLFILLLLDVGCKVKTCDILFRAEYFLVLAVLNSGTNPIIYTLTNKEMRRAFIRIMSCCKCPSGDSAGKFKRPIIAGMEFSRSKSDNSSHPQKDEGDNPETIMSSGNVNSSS

On to `C/N=C1/S/C(=C/c2cc(C)n(-c3ccc(Cl)cc3F)c2C)C(=O)N1C`, for which the half-maximal effective concentration (EC50) in test [1] was 3.01 µM (active); in [2] it was 33.6 nM (active); in [3], > 25 µM (inactive); in test [4] it was > 25 µM (inactive).

Turning to `CN(C)S(=O)(=O)c1ccc(-c2csc(N/N=C/c3ccco3)n2)cc1`, the IC50 with CHO-K1 was > 66.2 µM (inactive); in test [5], > 49.8 µM (inactive); in test [7], 7.29 µM (active); in [8] it was > 49.8 µM (inactive); on Orexin receptor type 2 [10], > 88.8 µM (inactive); on Orexin receptor type 2 [11], > 50 µM (inactive). In addition, in [6], the EC50 was 8.51 µM (active). For the same molecule, the half-maximal activity concentration (AC50) in test [9] was 3.9 µM (active); in [12], 40.7 µM (active); in test [13], 5.32 µM (active); in test [14], 7.23 µM (active); in test [15], 7.48 µM (active); in test [16], 11 µM (active).

On to `O=C(CCC1CCCCC1)NCCN1C2=NC[C@H](Cc3ccc(O)cc3)N2C[C@H]1Cc1ccc(O)cc1`, for which the AC50 in [17] is 19.5 µM (active).

`Cc1cc(=O)[nH]c2[nH]nc(-c3cccc(C(F)(F)F)c3)c12`: the Ki in [18] was > 6.31 µM (inactive); in test [19], > 3.98 µM (inactive); in [20], > 6.31 µM (inactive); in [21], > 5.01 µM (inactive); at Activin receptor type-1 it was > 3.98 µM (inactive); in test [22] it was > 5.01 µM (inactive). Also, the Ki in test [23] was > 6.31 µM (inactive); in test [24], > 6.31 µM (inactive); in test [25] it was > 5.01 µM (inactive); in [26], > 3.98 µM (inactive); in test [27], > 3.98 µM (inactive); in [28], > 5.01 µM (inactive). The Ki in test [29] was > 5.01 µM (inactive); in test [30], > 6.31 µM (inactive); in test [31], > 3.98 µM (inactive); in test [32] it was > 3.98 µM (inactive); in test [33], > 3.98 µM (inactive); at Focal adhesion kinase 1 it was > 6.31 µM (inactive). Moreover, the Ki in test [34] is > 6.31 µM (inactive); in test [35], > 3.98 µM (inactive); in test [36], > 5.01 µM (inactive); in test [37] it was > 7.94 µM (inactive).

These data come from ChEMBL document CHEMBL1201862, “PubChem BioAssay data set” (2004).
